One series concerns the target T1, hM2 (Homo sapiens, UniProt P08172).
T1 sequence (P08172 1-466): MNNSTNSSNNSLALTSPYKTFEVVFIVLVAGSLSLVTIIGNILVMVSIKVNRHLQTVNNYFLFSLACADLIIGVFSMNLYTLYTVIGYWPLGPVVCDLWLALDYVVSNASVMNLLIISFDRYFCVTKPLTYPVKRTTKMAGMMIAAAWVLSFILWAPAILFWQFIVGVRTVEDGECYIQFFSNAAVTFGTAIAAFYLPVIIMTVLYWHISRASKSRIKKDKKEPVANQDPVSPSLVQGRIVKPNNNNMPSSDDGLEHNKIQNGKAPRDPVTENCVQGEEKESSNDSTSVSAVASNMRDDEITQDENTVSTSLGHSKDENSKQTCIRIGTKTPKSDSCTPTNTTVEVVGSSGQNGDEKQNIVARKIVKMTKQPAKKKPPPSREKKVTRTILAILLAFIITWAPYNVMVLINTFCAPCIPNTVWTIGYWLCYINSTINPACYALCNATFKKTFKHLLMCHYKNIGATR
In words: M2 cAMP biosensor functional assay. Format: cell-based.

In a further series the target is T2, hM1 (Homo sapiens, UniProt P11229).
T2 sequence (P11229 1-460): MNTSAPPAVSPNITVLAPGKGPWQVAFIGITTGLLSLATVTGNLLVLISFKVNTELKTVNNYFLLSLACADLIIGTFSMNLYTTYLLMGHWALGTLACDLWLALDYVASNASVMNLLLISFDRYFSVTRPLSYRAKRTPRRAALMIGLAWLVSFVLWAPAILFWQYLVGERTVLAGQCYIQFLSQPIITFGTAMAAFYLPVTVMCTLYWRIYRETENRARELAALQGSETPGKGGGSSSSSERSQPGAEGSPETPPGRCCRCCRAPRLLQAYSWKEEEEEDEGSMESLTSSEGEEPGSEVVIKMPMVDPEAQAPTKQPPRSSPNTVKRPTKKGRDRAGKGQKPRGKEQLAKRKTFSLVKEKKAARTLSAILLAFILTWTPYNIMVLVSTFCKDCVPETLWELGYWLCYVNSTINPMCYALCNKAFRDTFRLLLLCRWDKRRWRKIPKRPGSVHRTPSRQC
Put plainly: M1 Ca2+ mobilization functional assay. The format is cell-based. For orientation: A change in cytosolic calcium serves as a functional read-out for many receptors and channels.

The target in series [1] is T3, flag-3MBT / BCLAF1 interaction (Homo sapiens, UniProt Q96JM7).
T3 sequence (Q96JM7 225-555 limits assumed): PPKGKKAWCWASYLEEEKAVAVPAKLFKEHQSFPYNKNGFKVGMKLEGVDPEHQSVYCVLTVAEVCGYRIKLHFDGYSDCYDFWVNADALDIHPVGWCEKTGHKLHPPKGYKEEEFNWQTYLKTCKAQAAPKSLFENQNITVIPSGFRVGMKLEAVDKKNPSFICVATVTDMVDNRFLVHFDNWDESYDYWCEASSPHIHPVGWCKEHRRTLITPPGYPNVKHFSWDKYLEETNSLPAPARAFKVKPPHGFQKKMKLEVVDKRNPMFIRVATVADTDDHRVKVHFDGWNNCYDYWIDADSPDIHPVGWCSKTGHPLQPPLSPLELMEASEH
In words: Co-immunoprecipitation of BCLAF1 with flag-3MBT. Format: cell-based. As to conditions: 1 μM, 18 hours, HEK293 cells.

Series [2] deals with G9a, EHMT1, SUV39H2, PRMT3, SETD7, SETD8, DNMT1, MLL, PRC2, PRMT5. Put plainly: Histone methyltransferase selectivity, radioactive SAM methyl transfer. Format: biochemical.
In series [3] the target is T4, flag-FLMBT / BCLAF1 interaction (Homo sapiens, UniProt Q96JM7).
T4 sequence (Q96JM7 1-755 isoform Q96JM7-2): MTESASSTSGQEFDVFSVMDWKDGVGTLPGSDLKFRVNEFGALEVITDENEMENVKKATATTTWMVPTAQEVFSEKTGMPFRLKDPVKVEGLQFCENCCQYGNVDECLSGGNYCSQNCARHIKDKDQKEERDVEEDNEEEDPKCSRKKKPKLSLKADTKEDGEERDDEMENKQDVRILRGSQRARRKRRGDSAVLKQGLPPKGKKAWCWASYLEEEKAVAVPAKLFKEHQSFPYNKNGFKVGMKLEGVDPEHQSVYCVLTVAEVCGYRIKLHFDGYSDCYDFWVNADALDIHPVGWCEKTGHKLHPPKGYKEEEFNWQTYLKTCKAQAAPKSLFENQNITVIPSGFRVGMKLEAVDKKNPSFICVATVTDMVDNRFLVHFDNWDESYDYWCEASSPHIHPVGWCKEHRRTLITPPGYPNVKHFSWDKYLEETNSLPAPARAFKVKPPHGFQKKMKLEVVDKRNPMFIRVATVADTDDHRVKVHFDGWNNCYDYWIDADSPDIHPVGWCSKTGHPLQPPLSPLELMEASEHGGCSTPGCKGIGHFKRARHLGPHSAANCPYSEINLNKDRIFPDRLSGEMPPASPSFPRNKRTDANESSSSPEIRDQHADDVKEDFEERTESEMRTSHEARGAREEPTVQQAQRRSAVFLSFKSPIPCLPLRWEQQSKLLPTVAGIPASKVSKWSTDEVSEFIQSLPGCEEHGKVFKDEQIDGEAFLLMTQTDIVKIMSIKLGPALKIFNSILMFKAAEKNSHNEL
Put plainly: Co-immunoprecipitation of BCLAF1 with flag-FLMBT. The following applies: 1 μM, 18 hours, HEK293 cells. Format: cell-based.

The test system of series [4] is Histone demethylases (15 targets). In words: Lysine demethylase selectivity, differential scanning fluorimetry. The format is binding. For orientation: DSF heats the sample and reads unfolding from a dye or from intrinsic fluorescence.
For series [5], the target named is T5, GFP-FLMBT foci in 293 or U2OS cells (Homo sapiens, UniProt Q96JM7).
T5 sequence (Q96JM7 1-755 isoform Q96JM7-2): T4 sequence (Q96JM7 1-755 isoform Q96JM7-2)
In words: GFP-FLMBT nuclear foci formation. Format: cell-based. The following applies: N-terminally tagged full length L3MBTL3.

In the next series the target is 53BP1 (Homo sapiens, UniProt Q12888). Put plainly: H4K20me2 peptide pull-down competition. The following applies: increasing concentrations.
53BP1, sequence (Q12888 1459-1634): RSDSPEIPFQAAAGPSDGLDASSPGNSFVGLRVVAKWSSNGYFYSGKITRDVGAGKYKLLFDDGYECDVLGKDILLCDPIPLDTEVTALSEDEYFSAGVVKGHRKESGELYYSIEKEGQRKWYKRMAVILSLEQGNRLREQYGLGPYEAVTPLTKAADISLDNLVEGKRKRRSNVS
Series [6] addresses T6, GFP-FLMBT (full length L3MBTL3) (Homo sapiens, UniProt Q96JM7).
T6 sequence (Q96JM7 1-755 isoform Q96JM7-2): T4 sequence (Q96JM7 1-755 isoform Q96JM7-2)
Put plainly: FRAP of GFP-FLMBT. The format is cell-based. The following applies: lesser extent than GFP-3MBT.

A further series has as its target T7, D381A 3MBT (Homo sapiens, UniProt Q96JM7, D381A).
T7 sequence (Q96JM7 225-555 D381A): T3 sequence (Q96JM7 225-555 limits assumed) with D157A
In words: ITC, domain 2 mutant. The following applies: domain 2 binding pocket mutant.

The test system of the next series is HEK293T/17 cells. In words: CellTiter-Glo luminescent cell viability assay. The following applies: up to 100 µM, 24 hours. Format: cell-based, human.
Series [7] deals with T8, L3MBTL3 (3MBT) (Homo sapiens, UniProt Q96JM7).
T8 sequence (Q96JM7 168-555 limits assumed): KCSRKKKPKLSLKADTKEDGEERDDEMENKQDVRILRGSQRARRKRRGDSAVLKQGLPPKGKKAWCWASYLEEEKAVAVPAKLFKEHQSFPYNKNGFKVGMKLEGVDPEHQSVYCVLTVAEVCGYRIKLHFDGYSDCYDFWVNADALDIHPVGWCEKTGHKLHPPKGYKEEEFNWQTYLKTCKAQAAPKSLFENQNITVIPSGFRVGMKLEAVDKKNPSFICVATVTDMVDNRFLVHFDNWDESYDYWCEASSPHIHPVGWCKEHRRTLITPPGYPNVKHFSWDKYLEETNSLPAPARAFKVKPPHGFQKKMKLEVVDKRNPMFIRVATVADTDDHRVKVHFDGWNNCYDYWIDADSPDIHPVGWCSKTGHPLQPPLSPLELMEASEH
Put plainly: H4K20me2 peptide pull-down competition. The following applies: increasing concentrations.

The test system of series [8] is Bromodomains (12 targets). Put plainly: Bromodomain selectivity, differential scanning fluorimetry. Format: binding. As to conditions: at 10 µM versus 12 targets.
The target of the next series is T9, D274A 3MBT (Homo sapiens, UniProt Q96JM7, D274A).
T9 sequence (Q96JM7 225-555 D274A): T3 sequence (Q96JM7 225-555 limits assumed) with D50A
Put plainly: ITC, domain 1 mutant. Format: binding. (In ITC the heat of successive injections is recorded.)

In the next series the target is T10, H277A 3MBT (Homo sapiens, UniProt Q96JM7, H277A).
T10 sequence (Q96JM7 225-555 H277A): T3 sequence (Q96JM7 225-555 limits assumed) with H53A
Put plainly: ITC, H277A mutant. Format: binding. The following applies: relative to wild-type.

The target in series [9] is T11, GFP-3MBT (L3MBTL3 MBT domains) in HEK293 cells (Homo sapiens, UniProt Q96JM7).
T11 sequence (Q96JM7 200-530 isoform Q96JM7-2 limits assumed): T3 sequence (Q96JM7 225-555 limits assumed)
Put plainly: FRAP of GFP-3MBT. The format is cell-based.

In series [10] the target is T12, L3MBTL3 (3MBT) (Homo sapiens, UniProt Q96JM7).
T12 sequence (Q96JM7 225-555): T3 sequence (Q96JM7 225-555 limits assumed)
The format is binding. As to conditions: similar affinity to H4K20me histone peptides.

Positions count from the first letter of the chain named. “Also recorded” adds a separate entry of the source. No end group written: not given here.

On to `O=C(c1ccc(C(=O)N2CCC(N3CCCC3)CC2)c(Nc2ccccc2)c1)N1CCC(N2CCCC2)CC1` [UNC1215], for which, on hM2, the “agonist activity, M2” value is recorded as “no agonist activity”. Also, the “agonist activity, M1” value at hM1 is reported as “no agonist activity”. In addition, the “interaction between flag-3MBT and BCLAF1, in words” value in [1] is “substantially reduced; also recorded: disrupts the interaction”. Moreover, the “activity against panel of histone methyltransferases, in words” value in [2] was “inactive”. Also, the “interaction between flag-FLMBT and BCLAF1, in words” value in series [3] is listed as “reduced to a lesser extent; also recorded: reduces the interaction”. Further, in series [4], the “Tm shift, lysine demethylases” value was < 0.5 °C. The “effect on GFP-FLMBT foci formation, in words” value in [5] was “relatively ineffective at inhibiting foci formation; also recorded: could no longer be disrupted”. The “antagonism of 53BP1 H4K20me2 pull-down, in words” value on 53BP1 is “much weaker affinity; also recorded: micromolar antagonism”. For the same molecule, the “mobility of GFP-FLMBT by FRAP, in words” value in series [6] is recorded as “found to increase”. Moreover, the “binding to D381A 3MBT by ITC, in words” value at D381A 3MBT is listed as “completely abolished; also recorded: completely abrogates binding”. Also, in the series with HEK293T/17 cells, the “cytotoxicity (CellTiter-Glo cell viability)” value is on record as “no observable level of cytotoxicity”. For the same molecule, the “antagonism of L3MBTL3 (3MBT) H4K20me2 pull-down, in words” value on L3MBTL3 (3MBT) [7] is “nanomolar potency”. Also, the “Tm shift, bromodomains” value in [8] was < 0.5 °C. Moreover, the “binding diminished relative to wildtype, D274A 3MBT” value at D274A 3MBT is recorded as “about 30 fold”. Further, the “binding to H277A 3MBT by ITC, in words” value on H277A 3MBT is “marked loss of affinity”. Also, in series [9], the half-maximal effective concentration (EC50) is 50 to 100 nM.
For “BCLAF1 Kme peptide: K445me containing BCLAF1 peptide (residues 438-452) (YKSKVSLK(Me)GNRESDG)”, the “displacement of H4K20me2 from L3MBTL3 by AlphaScreen, in words” value in the series with L3MBTL3 (3MBT) [10] is “effectively displaces H4K20me2”.

The EC50 is the concentration needed to bring the measured effect to its halfway point. High values mean a need for much substance, low ones an effect from little substance.
